According to patent publication US8541567B2, “Transition state structure of 5′-methylthioadenosine/s-adenosylhomocysteine nucleosidases” (Albert Einstein College of Medicine of Yeshiva University, priority 2005, dated 2013):
“Also recorded” adds a separate entry of the source.

Columns and labels:
E. coli MTAN [1] = target: T1, E. coli MTAN (Escherichia coli, UniProt P0AF12); conditions: cited from earlier work; for substrate activity: result in words
T1 construct: consists of 232 amino acids belonging to E. coli MTAN and 10 residues from the N-terminal histidine fusion tag; histidine tag (N, cleaved yes); made in house
T1 sequence (P0AF12 whole entry, the tested form may be a part): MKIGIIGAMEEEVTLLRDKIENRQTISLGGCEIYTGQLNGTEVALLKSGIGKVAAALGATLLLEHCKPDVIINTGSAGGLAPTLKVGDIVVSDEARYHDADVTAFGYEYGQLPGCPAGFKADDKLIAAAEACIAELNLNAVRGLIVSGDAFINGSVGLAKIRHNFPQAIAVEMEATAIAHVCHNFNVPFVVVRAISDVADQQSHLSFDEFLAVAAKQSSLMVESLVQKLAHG

E. coli MTAN [2] = target: T1, E. coli MTAN; conditions: overall / equilibrium dissociation constant; read-out: dissociation constant (Kd) following slow-onset inhibition, or Ki*; cited from earlier work
[3] = 9-deazapurine ring; cited from earlier work
E. coli MTAN [4] = target: T1, E. coli MTAN; assay: Slow-onset inhibition of E. coli MTAN by transition state analogues; assay type: biochemical; conditions: Kd 47 fM versus Km 4.3 μM

## Nc1ncnc2c1ncn2[C@@H]1O[C@H](CSCC[C@H](N)C(=O)O)[C@@H](O)[C@H]1O [S-adenosylhomocysteine]
E. coli MTAN [1]; substrate S-adenosylhomocysteine
  Km: 4.3 µM

## (1S)-1-(9-deazaadenin-9-yl)-1,4-dideoxy-1,4-imino-5-methylthio-D-ribitol [MT-ImmA]
E. coli MTAN [2]
  Kd: 0.077 nM

## CSC[C@H]1O[C@@H](n2cnc3c(N)ncnc32)C[C@@H]1O [2′-deoxy-MTA]
E. coli MTAN [1]; relative to MTA
  catalytic activity retained: 85%
E. coli MTAN [1]
  substrate activity: good substrate

## CSC[C@@H]1C[C@@H](O)[C@H](n2cnc3c(N)ncnc32)O1 [3′-deoxy-MTA]
E. coli MTAN [1]
  substrate activity: is not; also recorded: not a substrate

## Nc1ncnc2cc[nH]c12 [9-deazaadenine]
[3]
  pKa at N7: > 10

## Nc1ncnc2c(CN3C[C@H](CSc4ccc(Cl)cc4)[C@@H](O)C3)c[nH]c12 [pC1PhT-DADMe-ImmA, (3R,4S)-4-(4-chlorophenylthiomethyl)-1-[(9-deazaadenin-9-yl]methyl)-3-hydroxypyrrolidine]
E. coli MTAN [4]
  binds tighter than the substrate S-adenosylhomocysteine: 91 million
